# Laboratory results from ChEMBL document CHEMBL4002608, “Discovery of new MurA inhibitors using induced-fit simulation and docking” (Bioorg Med Chem Lett, 2017).
# Activity calls are given as the source filed them. The rule behind the calls is not given here.
# How the values were obtained:
# [1] = tested on: Escherichia coli DH5[alpha]; experiment: Inhibition of Escherichia coli DH5alpha C-terminal His6-tagged MurA expressed in Escherichia coli BL21(DE3) assessed as residual activity at 100 uM using UNAG as substrate after 15 mins in presence of PEP by malachite green dye based spectrophotometric method relative to control
# [2] = Inhibition of Escherichia coli DH5alpha C-terminal His6-tagged MurA expressed in Escherichia coli BL21(DE3) using UNAG as substrate after 15 mins in presence of PEP by malachite green dye based spectrophotometric method; parameters: species or system Escherichia coli DH5[alpha]
# [3] = tested on: Escherichia coli DH5[alpha]; experiment: (§1) Irreversible inhibition of Escherichia coli DH5alpha C-terminal His6-tagged MurA expressed in Escherichia coli BL21(DE3) at 0.8 uM preincubated for 30 mins followed by compound dilution and subsequent substrate UNAG addition measured after 20 mins in presence of PEP by malachite green dye based spectrophotometric method
# [4] = Inhibition of Enterobacter cloacae MurA
# [5] = tested on: Staphylococcus aureus; experiment: Antibacterial activity against Staphylococcus aureus ATCC 29213 after 20 to 24 hrs by broth microdilution assay; type: functional
# [6] = tested on: Escherichia coli; experiment: Antibacterial activity against Escherichia coli ATCC 25922 after 20 to 24 hrs by broth microdilution assay; type: functional
# [7] = Inhibition of Escherichia coli MurA
# [8] = Inhibition of methicillin-resistant Staphylococcus aureus MurA
# [9] = Inhibition of Staphylococcus aureus MurA
# [10] = Inhibition of Haemophilus influenzae MurA
# [11] = tested on: Escherichia coli DH5[alpha]; experiment: as §1, with “Reversible” for “Irreversible”, “5” for “0.8”
SMILES,Activity [1],further results
CN1CCN([C@H](C(=O)O)c2c(C(=O)O)n(Cc3ccccc3)c3ccccc23)CC1,94%,–
O=C(O)c1c([C@@H](C(=O)O)N2CCN(c3ccccn3)CC2)c2ccccc2n1Cc1ccccc1,87%,–
C[C@@H](Oc1ccc2ccccc2c1)C(=O)NCc1nc(-c2ncccn2)no1,98%,–
O=C(O)[C@H]1CC2(CCN(C(=O)c3cc4ccccc4[nH]3)CC2)CN1C(=O)C1CC1,100%,–
O=C1[C@@H]2C3c4ccccc4C(C(=O)O)(c4ccccc43)[C@@H]2C(=O)N1c1cccc([N+](=O)[O-])c1,98%,–
C[C@@H]1O[C@@H]1P(=O)(O)O [FOSFOMYCIN],< 50%,IC50 [2]: 41 µM; inhibition [3]: Active
O=C(O)COc1ccccc1[C@@H]1C2=C(CCCC2=O)Nc2nc(SCc3ccccn3)nn21,91%,–
O=C(O)C[C@H]1c2ccccc2CCN1C(=O)c1cc(=O)[nH]c2ccccc12,85%,–
CCOc1ccc(N2C(=O)[C@@H]3C4c5ccccc5C(C(=O)O)(c5ccccc54)[C@@H]3C2=O)c([N+](=O)[O-])c1,78%,–
CCOc1ccc(N2C(=O)[C@@H]3C4c5ccccc5C(C(=O)O)(c5ccccc54)[C@@H]3C2=O)cc1,100%,–
CS(=O)(=O)N1CCN([C@H](C(=O)O)c2c(C(=O)O)n(Cc3ccccc3)c3ccccc23)CC1,99%,–
CC1=C(O)C(=O)[C@H]2O[C@@H]2C1=O,–,IC50 [4]: 14 µM
O=C(c1cnn(Cc2ccccc2)c1)N1CC=C(c2c[nH]c3ncccc23)CC1,< 50%,IC50 [2]: 109 µM; Activity [5]: inactive; Activity [6]: inactive
C=C(C(=O)OC)[C@@H]1[C@@H](CCCCCCCC)OC(=O)[C@@H]1O,–,IC50 [7]: 2.8 µM; IC50 [8]: 6.7 µM
O=C(Nc1cc(CCc2ccccc2)ccn1)[C@H]1CCCN(c2ncccn2)C1,99%,–
CCc1cc(C(=O)N2CCN[C@H](C(=O)O)C2)c(NC(=O)c2ccccc2)s1,63%,–
O=C(O)[C@H]1C[C@@H](C(=O)N2CCCC2)CN(C(=O)c2[nH]nc3c2CCCC3)C1,100%,–
CS(=O)(=O)N1CCc2cc(C(=O)N3CCC(c4cc5ccccc5[nH]4)CC3)ccc21,85%,–

SMILES,Activity [1],further results
O=C(CCN1CCCO1)N1CCc2[nH]nc(-c3cccc4ccccc34)c2C1,86%,–
Cc1ncc2c(c1CNC(=O)c1cc3ccccc3[nH]1)CCN(C(=O)C1=CCCC1)C2,66%,–
Cc1ccccc1-n1cc(CN[C@H]2CCCN(c3ncccn3)C2)cn1,99%,–
Cc1c(C(=O)N2CCC[C@@H](C(N)=O)C2)sc2ncnc(NCCCc3ccccc3)c12,100%,–
CC(=O)N1CCN([C@H](C(=O)O)c2c(C(=O)O)n(Cc3ccccc3)c3ccccc23)CC1,96%,–
C=C1C(=O)OCC1O (racemic) [(+/-)-TULIPALINE B],–,IC50 [7]: 0.2 µM
O=c1oc2c(Cl)cc(O)c(Cl)c2s1,–,IC50 [7]: 0.28 µM; IC50 [9]: 1.09 µM
O=C(C1=C(O)C(=O)N(c2nnc(SCc3ccccc3)s2)[C@@H]1c1ccc(O)cc1)c1ccco1,62%,–
O=C(O)c1ccc(-c2nccn2Cc2nc3ccccc3c(=O)[nH]2)cc1,< 50%,IC50 [2]: 82 µM; Activity [5]: inactive; Activity [6]: inactive
Cc1ccccc1-c1cccc(CN[C@H]2CCCN(c3ncccn3)C2)c1,86%,–
CO[C@H](C(=O)N1CCc2c(cnc(C)c2CNC(=O)c2cccs2)C1)c1ccccc1,92%,–
Cc1cc(C)nc(-c2cccc3c2O[C@@H](CNC(=O)c2ccc(N4CCN(C)CC4)cc2)C3)n1,98%,–
O=[N+]([O-])/C(Br)=C/c1ccc(Br)o1,–,IC50 [7]: 2.8 µM; IC50 [9]: 3.9 µM
O=C1C(Oc2ccc(O)cc2)=C(Cl)C(=O)c2ncccc21,–,IC50 [10]: 2.8 µM
Cc1n[nH]c(S/C(=C/c2ccc(-c3cccc(C(=O)O)c3)o2)C(=O)O)n1,< 50%,IC50 [2]: 1 µM; inhibition [11]: Active; Activity [5]: inactive; Activity [6]: inactive
c1ccc(CN2CC[C@@H](Nc3nncc(-c4cc5ccccc5o4)n3)C2)cc1,82%,–
O=C(O)c1nn(CCCc2ccccc2)c2c1CN(C(=O)c1ccc[nH]1)CC2,91%,–
O=C(O)c1nn(CCCc2ccccc2)c2c1CN(C(=O)c1cnc[nH]1)CC2,96%,–
